In patent EP1795539B1, “Cell penetrating peptides for intracellular delivery of molecules” (Centre National de la Recherche Scientifique, priority 2005, dated 2007):
Where two headings read alike, the source gives them in different places. Peptide text beside a SMILES is read from it.

Legend:
different cell lines = format: cell-based; conditions: 12 h
Description: • Figure 1 : Schematic representation of CADY cellular uptake mechanism. • Figure 2 : Structure of CADY in the interaction with the membrane. • (A) modelisation • (B) CD experiments - Far UV CD spectra were recorded on a JASCO J-810 spectro-polarimeter (JASCO Corporation, Tokyo, Japan) using a quartz cuvette with a path length of 1 mm. Spectra were corrected from the baseline buffer spectrum and smoothed with the JASCO software. Peptides were dissolved to a fixed concentration of 50 µM in water or in PBS. CD spectra were collected at 23°C and each spectrum represents the average of 4 scans. […] Binding of cargoes to CADY was monitored by steady state fluorescence spectroscopy. The intrinsic fluorescence associated to the Trp residues of CADY was used as sensitive probe. The fluorescence of CADY is centered at 340 nm upon excitation at 290 nm. […] The knockdown of the GAPDH at the protein level was quantified 48 hrs after transfection by Western blot analysis using polyclonal antibody (Ref. ABCAM GAPDH antibody - ab9385 rabbit polyclonal). […] The size of the particle was determined by light scattering and the knock down of GAPDH protein was quantified by Western blot analysis. • (B) role of the endosomal pathway on the efficiency of CADY-mediated siRNA delivery. […]

HS-68 and Hela cells = test: Toxicity of CADY variants, MTT cell viability assay (Table 1); format: cell-based
Description: The toxicity of CADY peptides has been investigated on different cell lines. Cells were incubated in the presence of increasing concentrations of CADY (from 0.1 µM to 1 mM) for 12 hrs and cell viability was estimated using MTT assay.

[1] = tested on: 5PC3 or Human H1299 adenocarcinoma cells; test: Intravenous injection of carrier/anti-cyclin B1 siRNA complexes, tumor growth; format: in vivo, NCR nude mice; conditions: one intravenous injection, siRNA 10 µg, ratio 1:20

In the case of `CC(=O)NCC(=O)N[C@@H](CC(C)C)C(=O)N[C@@H](Cc1c[nH]c2ccccc12)C(=O)N[C@@H](CCCNC(=N)N)C(=O)N[C@@H](C)C(=O)N[C@@H](CC(C)C)C(=O)N[C@@H](Cc1c[nH]c2ccccc12)C(=O)N[C@@H](CCCNC(=N)N)C(=O)N[C@@H](CC(C)C)C(=O)N[C@@H](CC(C)C)C(=O)N[C@@H](CCCNC(=N)N)C(=O)N[C@@H](CO)C(=O)N[C@@H](CC(C)C)C(=O)N[C@@H](Cc1c[nH]c2ccccc12)C(=O)N[C@@H](CCCNC(=N)N)C(=O)N[C@@H](CC(C)C)C(=O)N[C@@H](CC(C)C)C(=O)N[C@@H](Cc1c[nH]c2ccccc12)C(=O)N[C@@H](CCCCN)C(=O)N[C@@H](C)C(=O)NCCS` [CADY-1] (HELM PEPTIDE1{[ac].G.L.W.R.A.L.W.R.L.L.R.S.L.W.R.L.L.W.K.A.[SCCN[*:1]]}$$$$V2.0), the EC50 (different cell lines) is reported as 500 µM and the EC50 (HS-68 and Hela cells; free peptide, MTT, read-out: free EC50) is reported as 400 µM.

In the case of `CC(C)CCC[C@@H](C)[C@H]1CC[C@H]2[C@@H]3CC=C4C[C@@H](OC(=O)NCC(=O)N[C@@H](CC(C)C)C(=O)N[C@@H](Cc5c[nH]c6ccccc56)C(=O)N[C@@H](CCCNC(=N)N)C(=O)N[C@@H](C)C(=O)N[C@@H](CC(C)C)C(=O)N[C@@H](Cc5c[nH]c6ccccc56)C(=O)N[C@@H](CCCNC(=N)N)C(=O)N[C@@H](CC(C)C)C(=O)N[C@@H](CC(C)C)C(=O)N[C@@H](CCCNC(=N)N)C(=O)N[C@@H](CO)C(=O)N[C@@H](CC(C)C)C(=O)N[C@@H](Cc5c[nH]c6ccccc56)C(=O)N[C@@H](CCCNC(=N)N)C(=O)N[C@@H](CC(C)C)C(=O)N[C@@H](CC(C)C)C(=O)N[C@@H](Cc5c[nH]c6ccccc56)C(=O)N[C@@H](CCCCN)C(=O)N[C@@H](C)C(=O)NCCS)CC[C@]4(C)[C@H]3CC[C@]12C` [CADY-S] (HELM PEPTIDE1{[CC(C)CCC[C@@H](C)[C@H]1CC[C@H]2[C@@H]3CC=C4C[C@@H](OC(=O)[*:2])CC[C@]4(C)[C@H]3CC[C@]12C].G.L.W.R.A.L.W.R.L.L.R.S.L.W.R.L.L.W.K.A.[SCCN[*:1]]}$$$$V2.0; N-terminus assumed), the tumor growth [1] is reported as “fully abolish the tumor growth” and the EC50 (HS-68 and Hela cells; 12 h) is reported as 200 µM.
